Data set [1] relates to central muscarinic antagonist and agonist binding sites, rat cerebral cortex tissue. Briefly: Receptor [3H]quinuclidinyl benzilate (RQNB) / [3H]cis-methyldioxalane (RCMD) binding, ratio of IC50 values. The conditions noted are these: agonists ratio >=100, antagonists near 1, partial agonists between 1 and 100. Here is the method:
The biological activity of (S)-3-ethyl-4-[(1-methyl-1H-imidazol-5-yl)methyl]-2-oxazolidinone or a pharmaceutically acceptable salt thereof as an agent for the treatment of the symptoms of cognitive decline in an elderly patient including Alzheimer's disease was evaluated using a number of tests. The activity of the aforementioned compound or pharmaceutically acceptable salt thereof as a central muscarinic binding site agonist and antagonist was measured. Thus, in the Receptor [^3 H]Quinuclidinyl Benzilate Binding Assay (RQNB), described more fully by Watson, M., et al, Journal of Pharmacology and Experimental Therapeutics, 237, pages 411-418 (1986), rat cerebral cortex tissue is treated with radiolabeled quinuclidinyl benzilate, a known muscarinic binding site antagonist. The concentration of test compound required to inhibit 50% of the binding of this muscarinic antagonist is then determined. This procedure allows a determination of the affinity of the test compound for the central muscarinic antagonist site. […] The concentration of test compound required to inhibit 50% of the binding of this muscarinic agonist is then determined. […]

The subject of data set [2] is M1 receptors / M2 receptors. Briefly: M1/M2 receptor binding: transformed cells possessing only M1 receptors and heart tissue (M2 receptors). From the text:
On the basis of molecular biology techniques, five subtypes of muscarinic receptors have been identified. For an agent useful in the treatment of cognitive decline in a patient, the relevant receptors are M1 since they are predominantly localized in brain areas associated with memory and learning (cortex and hippocampus). For comparison, M2 receptors are predominantly localized in peripheral tissues (e.g. the heart). […] The ratio of M1/M2 is shown in Table I. (S)-3-Ethyl-4-[(1-methyl-1H-imidazol-5-yl)methyl]-2-oxazolidinone is 3-fold selective for M1receptors over M2 receptors

The test system of data set [3] is rat. Briefly: Increase in rate of stomach emptying (M1 active). In kind it is in vivo. The settings on record: PO. From the text:
(§1) Thus, the receptor binding selectivity of (S)-3-ethyl-4-[(1-methyl-1H-imidazol-5-yl)methyl]-2-oxazolidinone translates into pharmacologic specificity in the whole animal with M1 actions (stomach emptying) predominating over M2 actions (enhanced intestinal motility). […] Additionally, as shown in Table I in the central nervous system the compound increases neocortical arousal as measured by quantitative electroencephalography at doses below those required to increase local cortical blood flow in rats.

The test system of data set [4] is rat. Briefly: Increase in smooth muscle motility of the intestines (M2 active). In kind it is in vivo. The settings on record: PO.
Description: as §1

A further data set deals with Male Long-Evans rats. Briefly: Neocortical arousal by quantitative electroencephalography (QEEG). The settings on record: rat, 10.0, 32.0 and 100.0 mg/kg tested. The class given is in vivo. From the text: The methodology for determining neocortical arousal in rats by quantitative electroencephalography (QEEG) is as follows:
Male Long-Evans rats weighing 350 to 500 g were surgically implanted with stainless steel electrodes screwed into the skull surface overlying the frontal and occipital cortex. Electrodes were secured to a plastic connector (Plastic Products Model MS-363) which was permanently attached to the skull surface with dental acrylic. Animals were given one week to recover from surgery before testing.
After recovery from surgery, QEEG was measured Briefly, animals were placed into sound attenuating chambers during the light cycles of the rats diurnal cycle. Animals were allowed two hours to habituate to these environments. Thereafter, EEG was recorded continuously for ten minutes before and two hours after drug administration. Every other one-second sample of EEG was converted from the time to the frequency domain using a fast fourier transformation (FFT). […] Mean power within the 0 to 4 (delta), 5 to 8 (theta), 9 to 15 (alpha), 16 to 25 (beta) Hz bands was calculated separately for each bandwidth. Total power within all bandwidths also was calculated. […]
Data from each bandwidth and total power were analyzed separately using nonparametric ranked analysis of variance (Kruskals-Wallis rank transformed analysis with repeated measures). […]

The next data set concerns awake unanesthetized rat. Briefly: Heart rate in the awake unanesthetized rat. In kind it is in vivo. The conditions noted are these: increase = M1 response, decrease = M2 response.
Description: as §1

The nature of data set [5]: Oral availability and duration of action. The conditions noted are these: in vivo.

Data on one molecule can be found in US4977172A, “Method of treating the symptoms of cognitive decline in an elderly patient employing (S)-3-ethyl-4-[(1-methyl-1H-imidazol-5-yl)-methyl]-2-oxazolidinone” (Warner-Lambert Company, priority 1989, dated 1990).

What is called ED50 is the midpoint of the dose-response relation. Higher therefore signals weaker potency.

With `CCN1C(=O)OC[C@@H]1Cc1cncn1C` [(S)-3-ethyl-4-[(1-methyl-1H-imidazol-5-yl)methyl]-2-oxazolidinone], in data set [1], the “RQNB/RCMD (ratio of IC50 values, muscarinic antagonist/agonist binding)” value is recorded as 214. The “selectivity for M1 receptors over M2 receptors” value in data set [2] (receptor binding) came out at 3 fold. Besides, the “M1/M2 (RECEPTOR BINDING)” value in data set [2] (transformed cells with only M1 receptors vs heart tissue (M2)) came to 3.3. Also, the ED50 was determined as 1.6 mg/kg in the data set with rat [3] and 13.1 mg/kg in the data set on rat [4]. Also, the “ELECTROENCEPHALOGRAPHY (ACTIVE DOSE RANGE, mg/kg, PO)” value in the data set on Male Long-Evans rats is 10-100 mg/kg. For the same molecule, the “effect on heart rate” value in the data set on awake unanesthetized rat is “increases (an M1 response) rather than decreases (an M2 response) heart rate”. Also, the duration of action result in data set [5] is given as “reasonable duration of action”. Moreover, the oral availability result in data set [5] (po) was “good oral availability”.
